The record followed here is patent US6369089B1, “Interheteroaryl 7-oxabicyclic [2.2.1]heptane oxazoles as prostaglandin F2α antagonists” (Allergan Sales, Inc., priority 2000, dated 2002).

This experiment deals with T1, human FP receptor (Homo sapiens, UniProt P43088).
T1 construct: expressed in transfected cells
As to the kind of experiment: Ca2+ signaling, antagonism of 17-phenyl PGF2α response in HEK cells stably transfected with the human FP receptor. It is filed as cell-based. How it is done: HEK cells stably transfected with the human FP receptor were removed from the culture flasks by approximately 1 min treatment with trypsin 0.05%/0.53 mM EDTA in HBSS (Gibco, Grand Island, N.Y.) at 37° C. Proteolytic activity was arrested by adding 5 ml of 10% fetal bovine serum in DMEM. The cells were consecutively washed in Hank's BSS and medium containing 140 mM NaCl, […], 1 mM MgCl2, 1.5 mM CaCl2, 10 mM HEPES: TRIS, 5 mM glucose, 5 mM Na pyruvate, 0.1% bovine serum albumin at pH 7.4: centrifugation for the washes was performed for 15 minutes at 200 g at room temperature. Cells were counted, resuspended in the above medium and incubated with 2×10^−6 M Fura 2/acetoxymethyl ester in a shaking water bath for 30 minutes at 37° C. The cells were subsequently washed in medium as above and resuspended at a concentration of 2×10^6 cells ml^−1. Aliquots of 0.5 ml cell suspension were then added to autocap microtubes to provide 10^6 cells per experimental determination of intracellular free Ca^2+ concentration ([Ca^2+]i).
Fluorescence was measured in a Perkin-Elmer LS-5 fluorescence spectrophotometer at excitation and emission wavelengths of 340 and 492 nm, respectively, with both slits at 10 nm. […]

T1 sequence (P43088 whole entry): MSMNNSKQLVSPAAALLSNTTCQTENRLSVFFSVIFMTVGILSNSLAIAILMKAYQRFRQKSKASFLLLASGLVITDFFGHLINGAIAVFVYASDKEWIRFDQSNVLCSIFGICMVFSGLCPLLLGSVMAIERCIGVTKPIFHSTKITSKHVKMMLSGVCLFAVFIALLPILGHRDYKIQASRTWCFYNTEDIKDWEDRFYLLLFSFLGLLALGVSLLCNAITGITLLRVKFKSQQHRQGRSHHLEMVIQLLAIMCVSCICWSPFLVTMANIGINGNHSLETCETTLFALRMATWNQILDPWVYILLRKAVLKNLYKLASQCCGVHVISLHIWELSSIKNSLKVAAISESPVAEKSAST

As for `COC(=O)CCc1ccccc1CC1C2CCC(O2)C1c1nc(C(=O)NCCCCC2CCCCC2)co1` (stereo not shown), the “PGF2α antagonist activity (comparison in words)” value is “much less active than the corresponding acid”.
